What was measured:
[1] = target: Adenosine receptor A2a (Homo sapiens, UniProt P29274)
[2] = target: T1, Alpha-2A adrenergic receptor (Homo sapiens, UniProt P08913); type: functional, cell-based
T1 sequence (P08913 whole entry): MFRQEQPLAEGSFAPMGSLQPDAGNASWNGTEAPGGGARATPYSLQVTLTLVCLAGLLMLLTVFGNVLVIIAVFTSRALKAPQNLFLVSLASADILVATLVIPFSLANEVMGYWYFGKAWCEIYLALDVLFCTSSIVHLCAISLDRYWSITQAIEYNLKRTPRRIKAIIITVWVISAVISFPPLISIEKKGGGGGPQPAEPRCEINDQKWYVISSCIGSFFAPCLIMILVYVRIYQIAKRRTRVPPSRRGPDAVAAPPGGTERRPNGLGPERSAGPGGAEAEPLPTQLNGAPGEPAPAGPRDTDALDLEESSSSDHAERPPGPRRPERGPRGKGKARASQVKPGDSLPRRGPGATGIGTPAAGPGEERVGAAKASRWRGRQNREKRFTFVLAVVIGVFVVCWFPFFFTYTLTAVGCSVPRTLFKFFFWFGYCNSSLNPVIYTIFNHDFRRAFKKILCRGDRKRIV

[3] = target: T2, Alpha-2B adrenergic receptor (Homo sapiens, UniProt P18089)
T2 sequence (P18089 whole entry): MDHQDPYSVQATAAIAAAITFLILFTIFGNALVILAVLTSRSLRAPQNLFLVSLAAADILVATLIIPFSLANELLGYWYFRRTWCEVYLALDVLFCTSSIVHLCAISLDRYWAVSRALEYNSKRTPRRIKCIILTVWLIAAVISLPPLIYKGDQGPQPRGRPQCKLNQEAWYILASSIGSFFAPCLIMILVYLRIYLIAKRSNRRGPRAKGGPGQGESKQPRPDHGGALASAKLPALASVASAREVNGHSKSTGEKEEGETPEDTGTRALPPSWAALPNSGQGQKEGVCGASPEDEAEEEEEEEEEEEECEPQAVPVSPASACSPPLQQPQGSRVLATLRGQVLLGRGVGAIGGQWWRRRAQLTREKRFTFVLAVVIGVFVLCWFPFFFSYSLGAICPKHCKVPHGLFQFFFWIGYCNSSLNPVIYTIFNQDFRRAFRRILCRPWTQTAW

[4] = target: T3, Cholecystokinin receptor type A (Homo sapiens, UniProt P32238)
T3 sequence (P32238 whole entry): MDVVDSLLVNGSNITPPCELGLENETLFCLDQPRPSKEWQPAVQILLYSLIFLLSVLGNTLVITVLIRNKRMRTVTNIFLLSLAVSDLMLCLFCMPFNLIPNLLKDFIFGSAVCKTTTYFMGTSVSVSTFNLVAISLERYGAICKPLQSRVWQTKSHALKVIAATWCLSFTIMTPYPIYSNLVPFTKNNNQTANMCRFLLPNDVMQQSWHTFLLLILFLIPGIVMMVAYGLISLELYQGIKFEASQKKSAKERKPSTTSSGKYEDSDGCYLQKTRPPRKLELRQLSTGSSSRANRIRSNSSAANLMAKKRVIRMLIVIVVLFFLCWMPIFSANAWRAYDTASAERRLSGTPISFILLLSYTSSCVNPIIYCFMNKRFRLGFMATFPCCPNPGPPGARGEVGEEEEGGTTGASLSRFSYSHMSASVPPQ

[5] = target: T4, Muscarinic acetylcholine receptor M2 (Homo sapiens, UniProt P08172); type: functional, cell-based
T4 sequence (P08172 whole entry): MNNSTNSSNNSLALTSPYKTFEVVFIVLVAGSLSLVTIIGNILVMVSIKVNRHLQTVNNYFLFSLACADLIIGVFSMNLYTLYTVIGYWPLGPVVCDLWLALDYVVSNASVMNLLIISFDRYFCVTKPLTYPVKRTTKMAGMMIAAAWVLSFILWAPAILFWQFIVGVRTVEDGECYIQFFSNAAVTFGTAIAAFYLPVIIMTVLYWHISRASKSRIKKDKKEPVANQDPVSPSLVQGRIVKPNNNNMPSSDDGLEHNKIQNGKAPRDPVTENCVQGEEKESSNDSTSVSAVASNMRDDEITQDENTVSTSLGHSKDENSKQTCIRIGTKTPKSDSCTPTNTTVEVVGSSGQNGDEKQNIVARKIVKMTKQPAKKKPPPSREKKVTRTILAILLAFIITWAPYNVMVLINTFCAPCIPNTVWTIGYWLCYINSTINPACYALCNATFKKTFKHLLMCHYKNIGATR

[6] = target: T4, Muscarinic acetylcholine receptor M2; type: functional, cell-based; remark: listed apart in the source
[7] = target: Muscarinic acetylcholine receptor M3 (Homo sapiens, UniProt P20309)
[8] = target: D(1A) dopamine receptor (Homo sapiens, UniProt P21728); type: functional, cell-based
[9] = target: Growth hormone secretagogue receptor type 1 (Homo sapiens, UniProt Q92847)
[10] = target: 5-hydroxytryptamine receptor 2A (Homo sapiens, UniProt P28223); type: functional, cell-based
[11] = target: T5, Neuropeptide Y receptor type 1 (Homo sapiens, UniProt P25929)
T5 sequence (P25929 whole entry): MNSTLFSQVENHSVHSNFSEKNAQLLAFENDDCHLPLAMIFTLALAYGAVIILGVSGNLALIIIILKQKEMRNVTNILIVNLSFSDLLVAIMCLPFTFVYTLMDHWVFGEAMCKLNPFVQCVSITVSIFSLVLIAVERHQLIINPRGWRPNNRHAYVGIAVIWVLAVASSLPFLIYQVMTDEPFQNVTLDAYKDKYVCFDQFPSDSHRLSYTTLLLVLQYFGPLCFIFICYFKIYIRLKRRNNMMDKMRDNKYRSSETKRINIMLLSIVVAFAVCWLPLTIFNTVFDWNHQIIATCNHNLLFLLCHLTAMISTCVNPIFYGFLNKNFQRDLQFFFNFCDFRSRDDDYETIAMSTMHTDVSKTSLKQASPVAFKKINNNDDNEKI

[12] = target: T6, Thromboxane A2 receptor (Homo sapiens, UniProt P21731)
T6 sequence (P21731 whole entry): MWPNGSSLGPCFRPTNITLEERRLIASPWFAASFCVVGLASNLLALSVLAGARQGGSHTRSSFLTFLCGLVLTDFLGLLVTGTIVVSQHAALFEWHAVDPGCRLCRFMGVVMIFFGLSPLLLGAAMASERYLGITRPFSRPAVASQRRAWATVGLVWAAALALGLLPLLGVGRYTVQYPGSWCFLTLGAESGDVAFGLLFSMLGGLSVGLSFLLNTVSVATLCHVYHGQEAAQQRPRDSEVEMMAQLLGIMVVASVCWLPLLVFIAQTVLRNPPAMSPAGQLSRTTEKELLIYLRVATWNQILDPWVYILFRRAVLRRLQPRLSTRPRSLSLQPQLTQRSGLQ
Also: assay procedure not described here.

Chain of 5-hydroxytryptamine receptor 2A (P28223 whole entry): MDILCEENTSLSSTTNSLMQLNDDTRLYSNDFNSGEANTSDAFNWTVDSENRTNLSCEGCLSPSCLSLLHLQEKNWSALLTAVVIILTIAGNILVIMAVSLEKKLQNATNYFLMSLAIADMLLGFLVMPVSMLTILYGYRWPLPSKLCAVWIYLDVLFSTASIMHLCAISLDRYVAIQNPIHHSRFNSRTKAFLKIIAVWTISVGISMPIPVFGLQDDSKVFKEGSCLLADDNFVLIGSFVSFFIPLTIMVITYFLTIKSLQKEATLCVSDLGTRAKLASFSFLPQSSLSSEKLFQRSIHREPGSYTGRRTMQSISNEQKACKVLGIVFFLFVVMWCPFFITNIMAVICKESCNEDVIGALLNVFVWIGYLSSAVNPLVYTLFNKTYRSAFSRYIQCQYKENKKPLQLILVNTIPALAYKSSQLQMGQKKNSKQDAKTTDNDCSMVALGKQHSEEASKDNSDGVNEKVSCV
Chain of D(1A) dopamine receptor (P21728 whole entry): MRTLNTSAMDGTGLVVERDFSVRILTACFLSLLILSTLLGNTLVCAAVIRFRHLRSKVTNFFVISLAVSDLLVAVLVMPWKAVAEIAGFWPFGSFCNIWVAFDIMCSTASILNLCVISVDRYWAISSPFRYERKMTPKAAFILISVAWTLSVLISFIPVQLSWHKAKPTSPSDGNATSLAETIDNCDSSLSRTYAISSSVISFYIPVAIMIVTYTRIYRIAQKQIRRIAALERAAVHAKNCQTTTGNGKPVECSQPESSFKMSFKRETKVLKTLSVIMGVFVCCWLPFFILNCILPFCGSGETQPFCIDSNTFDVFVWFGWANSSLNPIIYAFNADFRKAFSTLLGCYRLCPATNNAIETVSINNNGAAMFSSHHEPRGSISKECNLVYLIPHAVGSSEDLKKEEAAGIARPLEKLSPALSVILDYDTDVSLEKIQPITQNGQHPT
Chain of Muscarinic acetylcholine receptor M3 (P20309 whole entry): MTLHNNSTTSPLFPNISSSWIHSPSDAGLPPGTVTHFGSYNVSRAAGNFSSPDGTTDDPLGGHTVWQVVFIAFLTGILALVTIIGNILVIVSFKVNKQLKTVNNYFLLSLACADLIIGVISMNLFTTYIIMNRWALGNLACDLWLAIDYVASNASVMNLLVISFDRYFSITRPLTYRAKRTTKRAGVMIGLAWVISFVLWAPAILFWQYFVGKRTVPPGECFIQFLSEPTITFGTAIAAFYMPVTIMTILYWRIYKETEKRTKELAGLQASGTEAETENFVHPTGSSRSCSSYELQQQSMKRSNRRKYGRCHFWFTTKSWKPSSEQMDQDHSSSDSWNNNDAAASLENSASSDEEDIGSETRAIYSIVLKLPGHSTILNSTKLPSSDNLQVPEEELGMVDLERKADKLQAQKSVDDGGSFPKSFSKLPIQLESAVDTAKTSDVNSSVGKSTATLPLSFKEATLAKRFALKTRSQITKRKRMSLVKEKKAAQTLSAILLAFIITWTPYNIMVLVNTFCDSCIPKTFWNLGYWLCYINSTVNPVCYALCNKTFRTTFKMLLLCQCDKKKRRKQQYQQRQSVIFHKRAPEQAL
Chain of Adenosine receptor A2a (P29274 whole entry): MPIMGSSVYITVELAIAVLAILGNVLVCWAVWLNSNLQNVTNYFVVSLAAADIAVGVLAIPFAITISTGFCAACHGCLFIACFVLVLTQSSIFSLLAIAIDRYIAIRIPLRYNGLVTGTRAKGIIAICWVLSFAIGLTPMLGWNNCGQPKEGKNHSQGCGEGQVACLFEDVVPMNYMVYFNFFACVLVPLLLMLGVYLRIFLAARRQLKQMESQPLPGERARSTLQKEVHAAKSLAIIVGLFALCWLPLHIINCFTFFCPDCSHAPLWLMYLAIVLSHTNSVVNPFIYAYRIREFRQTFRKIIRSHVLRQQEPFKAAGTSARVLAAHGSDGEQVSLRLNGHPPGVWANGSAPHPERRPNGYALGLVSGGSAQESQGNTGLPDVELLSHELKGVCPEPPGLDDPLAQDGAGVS
Chain of Growth hormone secretagogue receptor type 1 (Q92847 whole entry): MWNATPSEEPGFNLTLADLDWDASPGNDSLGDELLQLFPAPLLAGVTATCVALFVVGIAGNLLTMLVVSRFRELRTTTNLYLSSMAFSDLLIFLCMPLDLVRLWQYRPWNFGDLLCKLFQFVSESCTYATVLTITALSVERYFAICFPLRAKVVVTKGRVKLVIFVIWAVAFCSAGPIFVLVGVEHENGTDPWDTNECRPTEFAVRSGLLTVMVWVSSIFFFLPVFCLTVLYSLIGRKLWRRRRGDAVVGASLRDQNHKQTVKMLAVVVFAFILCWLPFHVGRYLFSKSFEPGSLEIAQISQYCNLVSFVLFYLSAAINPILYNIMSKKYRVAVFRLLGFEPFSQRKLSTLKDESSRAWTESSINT

Structure (SMILES)	AC50 [1] [µM]	AC50 [2] [µM]	AC50 [3] [µM]	AC50 [4] [µM]	AC50 [5] [µM]	AC50 [6] [µM]	AC50 [7] [µM]	AC50 [8] [µM]	AC50 [9] [µM]	AC50 [10] [µM]	AC50 [11] [µM]	AC50 [12] [µM]
CCOc1cc(N)c([N+](=O)[O-])cc1C(=O)NC1CCN(CC2CC=CCC2)CC1 (centres undefined) [CINITAPRIDE]	> 30	> 30	9.3	> 30	> 30	> 30	13	> 30	> 30	0.07	> 30	> 30
CN1CC[C@]23CCCC[C@H]2[C@H]1Cc1ccc(O)cc13 [LEVORPHANOL]	> 10	> 10	> 30	> 10	> 10	> 10	> 30	> 30	> 10	> 10	> 10	> 10
CCCCCN(C)CCC(O)(P(=O)(O)O)P(=O)(O)O [IBANDRONIC ACID]	> 30	> 30	> 30	> 30	> 30	> 30	> 30	> 30	> 30	> 30	> 30	> 30
O=C(O)Cc1cn(-c2ccccc2)nc1-c1ccc(Cl)cc1 [LONAZOLAC]	> 30	> 30	> 30	> 30	> 30	> 30	> 30	> 30	> 30	> 30	> 30	> 30
CC(=O)NS(=O)(=O)c1ccc(N)cc1 [SULFACETAMIDE]	> 10	> 10	> 10	> 10	> 10	> 10	> 30	> 10	> 10	> 10	> 10	> 10
CN1C(=O)CC(c2ccccc2)C1=O (centres undefined) [PHENSUXIMIDE]	> 10	> 10	> 10	> 10	> 10	> 10	> 30	> 10	> 10	> 10	> 10	> 10
C#C[C@]1(O)CC[C@H]2[C@@H]3CCC4=CCCC[C@@H]4[C@H]3CC[C@@]21C [LYNESTRENOL]	> 30	> 30	> 30	> 30	> 30	> 30	> 30	> 30	> 30	> 30	> 30	> 30
